Assay results reported in patent US20210330611A1, “THERAPY FOR NEUROLOGICAL DISEASES/DISORDERS” (priority 2020, published 2021).
Structures can show the parent of a compound that is named as a salt. Where two headings read alike, the source gives them in different places.

Key:
[1] = tested on: LPS-induced microglia activation; assay: Image-based assay of LPS-induced microglia activation (HTS and dose response); assay type: cell-based, rat; conditions: for inhibition at 10 µM: Rattus norvegicus, Microglia, 48 h, read-out: LPS % inhibition
[2] = tested on: fibrin- and LPS-induced microglia activation; assay: cells; assay type: cell-based, rat
primary rat microglia [3] = tested on: primary rat microglia;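 on Fibrin % cell toxicity: share of dead cells sized under 150 µm2 at 10 µM in fibrin-stimulated microglia HTS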
primary rat microglia [4] = tested on: primary rat microglia; remark: listed apart in the source;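 on Fibrin % cell toxicity: share of dead cells sized under 150 µm2 at 10 µM in fibrin-stimulated microglia HTS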
[5] = tested on: fibrin-induced microglia activation; assay: Image-based assay of fibrin-induced microglia activation (HTS and dose response); assay type: cell-based, rat; conditions: for inhibition at 10 µM: Rattus norvegicus, Microglia, read-out: Fibrin % inhibition
[6] = primary microglia HTS, LPS stimulation, increased cell size (>800 μm^2) as marker of activation
[7] = quadrant by fibrin and LPS inhibition in HTS of 1907 compounds
[8] = primary microglia HTS, fibrin stimulation, increased cell size (>800 μm^2) as marker of activation

SMILES | inhibition at 10 µM [1, 6] | Quadrant (FIG. 5b) [2, 7] | Fibrin % cell toxicity (primary rat microglia [3]; rat) | LPS % cell toxicity (primary rat microglia [4]; rat) | inhibition at 10 µM [5, 8] | LPS % inhibition [1] | Quadrant (FIG. 5b) [2] | Fibrin % inhibition [5] | inhibition at 10 µM [1] | inhibition at 10 µM [5] | LPS % inhibition [1, 6] | Fibrin % cell toxicity (primary rat microglia [3]) | LPS % cell toxicity (primary rat microglia [4]) | Fibrin % inhibition [5, 8]
Clc1ccc(C(c2ccccc2Cl)C(Cl)Cl)cc1 (stereo not shown) [Mitotane] | -1% | Q4 | 0% | 0% | -19% | – | – | – | – | – | – | – | – | –
CC(C)(O)c1ccccc1CC[C@@H](SCC1(CC(=O)O)CC1)c1cccc(/C=C/c2ccc3ccc(Cl)cc3n2)c1 [Montelukast Sodium] | – | – | 1% | 0% | – | 16% | Q4 | 21% | – | – | – | – | – | –
CC(C)(O)c1ccccc1CC[C@@H](SCC1(CC(=O)O)CC1)c1cccc(/C=C/c2ccc3ccc(Cl)cc3n2)c1 [Montelukast] | – | – | 1% | 0% | – | – | Q4 | −5% | 12% | – | – | – | – | –
COc1c(N2C[C@@H]3CCCN[C@@H]3C2)c(F)cc2c(=O)c(C(=O)O)cn(C3CC3)c12 [Moxifloxacin Hydrochloride] | 14% | Q4 | 1% | 0% | 7% | – | – | – | – | – | – | – | – | –
CC1CCc2c(N3CCC(O)CC3)c(F)cc3c(=O)c(C(=O)O)cn1c23 (stereo not shown) [Nadifloxacin] | 10% | Q4 | 1% | 0% | -14% | – | – | – | – | – | – | – | – | –
CN(C/C=C/c1ccccc1)Cc1cccc2ccccc12 [Naftifine] | – | – | 0% | 0% | – | – | Q4 | – | 3% | -12% | – | – | – | –
Oc1ccc2c3c1O[C@H]1[C@@H](O)CC[C@@]4(O)[C@@H](C2)N(CC2CCC2)CC[C@]314 [Nalbuphine Hydrochloride] | – | – | 1% | 0% | – | 15% | Q4 | −11% | – | – | – | – | – | –
Oc1ccc2c3c1O[C@H]1[C@@H](O)CC[C@@]4(O)[C@@H](C2)N(CC2CCC2)CC[C@]314 [Nalbuphine] | – | – | 1% | 0% | – | – | Q4 | −8% | 16% | – | – | – | – | –
C=CCN1CC[C@]23c4c5ccc(O)c4O[C@H]2C(=O)CC[C@@]3(O)[C@H]1C5 [Naloxone Hydrochloride] | – | – | 0% | 0% | – | 11% | Q4 | −16% | – | – | – | – | – | –
C=CCN1CC[C@]23c4c5ccc(O)c4O[C@H]2C(=O)CC[C@@]3(O)[C@H]1C5 [Naloxone] | – | – | 1% | 1% | – | – | Q4 | −41% | 21% | – | – | – | – | –
OC(CNCC(O)C1CCc2cc(F)ccc2O1)C1CCc2cc(F)ccc2O1 (stereo not shown) [Nebivolol] | 6% | Q4 | 1% | 0% | -10% | – | – | – | – | – | – | – | – | –
Cc1c(O)cccc1C(=O)N[C@@H](CSc1ccccc1)[C@H](O)CN1C[C@H]2CCCC[C@H]2C[C@H]1C(=O)NC(C)(C)C [Nelfinavir] | 13% | Q4 | 1% | 0% | 16% | – | – | – | – | – | – | – | – | –
NC[C@@H]1O[C@H](O[C@H]2[C@@H](O)[C@H](O[C@@H]3[C@@H](O)[C@H](N)C[C@H](N)[C@H]3O[C@H]3O[C@H](CN)[C@@H](O)[C@H](O)[C@H]3N)O[C@@H]2CO)[C@H](N)[C@@H](O)[C@@H]1O.O=S(=O)(O)O [Neomycin Sulfate] | – | Q4 | – | – | – | – | – | – | – | – | 18% | 0% | 0% | 15%
CO[C@]12C[C@@H](COC(=O)c3cncc(Br)c3)CN(C)[C@@H]1Cc1cn(C)c3cccc2c13 [Nicergoline] | 7% | Q4 | 1% | 0% | 6% | – | – | – | – | – | – | – | – | –
NC(=O)c1cccnc1 [Nicotinamide] | – | – | 1% | 0% | – | – | Q4 | – | 16% | -8% | – | – | – | –
CN1CCC[C@H]1c1cccnc1 [Nicotine] | – | – | 1% | 1% | – | – | Q4 | – | 21% | 2% | – | – | – | –
Cc1cn(-c2cc(NC(=O)c3ccc(C)c(Nc4nccc(-c5cccnc5)n4)c3)cc(C(F)(F)F)c2)cn1 [Nilotinib] | 17% | Q4 | 1% | 1% | -35% | – | – | – | – | – | – | – | – | –
COC(=O)C1=C(C)NC(C)=C(C(=O)OCC(C)C)C1c1ccccc1[N+](=O)[O-] (stereo not shown) [Nisoldipine] | 25% | Q4 | 1% | 1% | 6% | – | – | – | – | – | – | – | – | –
O=C1CN=C(c2ccccc2)c2cc([N+](=O)[O-])ccc2N1 [Nitrazepam] | -4% | Q4 | 1% | 0% | -1% | – | – | – | – | – | – | – | – | –
O=C1CN(/N=C/c2ccc([N+](=O)[O-])o2)C(=O)N1 [Nitrofurantoin] | – | – | 1% | 0% | – | – | Q4 | – | 11% | -3% | – | – | – | –
CNC(=C[N+](=O)[O-])NCCSCc1csc(CN(C)C)n1 [Nizatidine] | 14% | Q4 | 0% | 0% | -18% | – | – | – | – | – | – | – | – | –
CCn1cc(C(=O)O)c(=O)c2cc(F)c(N3CCNCC3)cc21 [Norfloxacin] | 9% | Q4 | 1% | 0% | 0% | – | – | – | – | – | – | – | – | –
Cc1cc2c(s1)Nc1ccccc1N=C2N1CCN(C)CC1 [Olanzapine] | – | – | 1% | 0% | – | – | Q4 | – | 9% | 6% | – | – | – | –
Cc1c(-c2cnccn2)ssc1=S [Oltipraz] | – | – | 1% | 0% | – | – | Q4 | – | -1% | -2% | – | – | – | –
CC(C)NCC(O)c1cc(O)cc(O)c1 (stereo not shown) [Orciprenaline] | 25% | Q4 | 0% | 0% | 15% | – | – | – | – | – | – | – | – | –
O=C(O)c1cc(=O)[nH]c(=O)[nH]1 [Orotic Acid] | 16% | Q4 | 0% | 0% | -5% | – | – | – | – | – | – | – | – | –
CCn1cc(C(=O)O)c(=O)c2cc3c(cc21)OCO3 [Oxolinic Acid] | 13% | Q4 | 0% | 1% | 7% | – | – | – | – | – | – | – | – | –
CCN(CC)CC#CCOC(=O)C(O)(c1ccccc1)C1CCCCC1 (stereo not shown) [Oxybutynin] | – | – | 0% | 1% | – | – | Q4 | – | 0% | -9% | – | – | – | –
CCCCC1C(=O)N(c2ccccc2)N(c2ccc(O)cc2)C1=O (stereo not shown) [Oxyphenbutazone] | – | Q1 | – | – | – | – | – | – | – | – | 114% | 1% | 97% | 2%
